The text below walks through data of paper PMC5826112, “Intrapulmonary Pharmacokinetics of Relebactam, a Novel β-Lactamase Inhibitor, Dosed in Combination with Imipenem-Cilastatin in Healthy Subjects” (Antimicrobial Agents and Chemotherapy, 2018).

Each structure is given as a SMILES string. Like-named read-outs stand apart in the source and are kept apart here.

A short description of data set [1]: Relebactam population PK model (two-compartment plasma model with time-invariant ELF partition coefficient). The format is in vivo, human (healthy subjects). The procedure: Population PK analysis was conducted using NONMEM (version 7.3) software (ICON plc., Dublin, Ireland). The first-order conditional estimation with interaction (FOCEI) method was applied for parameter estimation. […] To elucidate the relationship between plasma and ELF concentrations, penetration into the ELF was explored using three approaches, each using a naive pooled data approach: (i) a three-compartment model with bidirectional mass transfer between the ELF compartment and the central volume, (ii) a time-invariant partition coefficient driven by the predicted unbound plasma concentration, and (iii) an effect compartment with an input rate constant driven by the concentration difference between the volume in the central compartment and the effect compartment.
The equations comprising the partition coefficient model are as follows: (1) dA1/dt=Q2/V2A2−Q2/V1A1−CL/V1A1 (2) dA2/dt=Q2/V1A1−Q2/V2A2 (3) CELF=kELF·fu,REL·A1/V1 where A1 is the amount of drug in the central compartment, A2 is the amount of drug in the peripheral compartment, CL is the plasma clearance, Q2 is the intercompartmental clearance, V1 is the volume of distribution in the central compartment, V2 is the volume of distribution in the peripheral compartment, CELF is the relebactam concentration in the ELF, fu,ELF is the free fraction of relebactam in plasma (∼80%), kELF is the partition coefficient for distribution into the ELF space, and t is time.
The free fraction in the ELF was assumed to be 100%. Different residual error models (additive, proportional, and combined) were tested for both the plasma and ELF concentrations of relebactam. Model development, including the selection of the structural and residual error model, was based upon the success of minimization, numerical comparison of the objective function values, the precision of the parameter estimates, and the generation of standard model diagnostic plots. The PK of imipenem were not modeled, as the lung penetration data from this study were previously described using a population PK approach ([21]).

Data set [2] is described as follows: Safety and tolerability in healthy subjects. The format is in vivo, human (healthy subjects). The settings on record: with imipenem-cilastatin. The text has this:
The safety and tolerability of relebactam were monitored by clinical assessment of adverse events, measurement of vital signs, and performance of a physical examination, 12-lead electrocardiogram (ECG), and standard laboratory safety tests (hematology, chemistry, and urinalysis). Renal function (established by determination of serum/urine creatinine, serum urea, urine protein, and urine albumin concentrations) and hepatic function (established by determination of serum bilirubin, alanine aminotransferase, and aspartate aminotransferase concentrations) were carefully monitored during the study. The safety of bronchoscopy and BAL was monitored by clinical assessment, including continuous cardiac monitoring and repeated measurements of vital signs, according to the standard operating procedures at the study site. All data were analyzed according to the treatment actually received. Safety and tolerability were assessed in the all-subjects-as-treated (AST) population, defined as all subjects who received at least one dose of study drug.

For data set [3] the following is noted: no reference given; cited from earlier work.
On the set-up of data set [4]: method as in PMID 25403667. The settings on record: thigh infection model; cited from earlier work.
On the set-up of data set [5]: method as in earlier work. Particulars: cited from earlier work.
On the set-up of data set [6]: method as in earlier work. The settings on record: relebactam doses of 125 mg or higher; exceeds single-dose target; cited from earlier work.
Details of data set [7]: method as in PMID 27503659, PMID 28575389. Particulars: coadministration with imipenem-cilastatin, phase 2 clinical studies; cited from earlier work.

For orientation: clearance means a measure of how efficiently the substance is removed, as volume per time.

As for `O=C(NC1CCNCC1)[C@@H]1CC[C@@H]2CN1C(=O)N2OS(=O)(=O)O` [relebactam], the Kp was 0.553 in data set [1] (human, ELF / unbound plasma, intravenous, driven by predicted unbound plasma concentration, read-out: Penetration coefficient for ELF (θkELF)) and 0.55 in data set [1] (human, ELF/unbound plasma, intravenous, based on free drug levels, read-out: time-invariant partition coefficient (ELF) estimated by the model). The clearance in data set [1] (human, plasma, intravenous, population PK structural model, read-out: Clearance (θCL) (converted)) is 153 mL/min. In addition, the Vd in data set [1] (human, plasma, intravenous, population PK structural model, read-out: Volume of distribution in the central compartment (θVc)) came to 15.3 L. For the same compound, the “Intercompartmental clearance (θQ2)” value in data set [1] (population PK structural model) was determined as 2.64 L/h. The “Volume of distribution in the peripheral compartment (θVp)” value in data set [1] (population PK structural model) was determined as 10.6 L. The tolerability result in data set [2] was “sufficiently well tolerated”; in data set [7], “generally well tolerated”. Moreover, the “unbound in plasma (free fraction)” value in data set [3] is about 80%. For the same compound, the figures for the “required exposure (AUC0–24) for efficacy” value in data set [4] and in data set [5] (pulmonary infection model) were about 100 µM·h and 150 µM·h, respectively. The “single-dose target (AUC0–∞)” value in data set [5] (derived from the target of 150 μM · h after four times daily dosing) is 37.5 µM·h. Also, the “exposure (AUC0–∞)” value in data set [6] was over 37.5 µM·h.
